pEC50: −log10 of the molar value.

As a reminder, the pEC50 is the negative decadic logarithm of the EC50, by convention in mol/L. What is called melting point is the temperature, or range, at which the solid turns liquid.

One data set deals with T1, human GPR40 (Homo sapiens, UniProt O14842).
T1 construct: expressed in transfected cells
T1 sequence (O14842 whole entry): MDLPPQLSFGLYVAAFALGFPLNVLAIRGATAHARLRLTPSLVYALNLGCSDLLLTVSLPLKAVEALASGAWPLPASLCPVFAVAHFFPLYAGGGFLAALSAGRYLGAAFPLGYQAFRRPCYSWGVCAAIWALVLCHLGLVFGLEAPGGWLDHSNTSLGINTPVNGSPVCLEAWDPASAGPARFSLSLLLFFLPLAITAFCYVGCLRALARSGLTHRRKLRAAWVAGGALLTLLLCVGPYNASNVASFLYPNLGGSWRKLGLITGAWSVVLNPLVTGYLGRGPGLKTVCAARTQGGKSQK
The data set is described as follows: Determination of EC50 against human GPR40: changes in intracellular calcium concentration by FLIPR in CHO cells stably expressing human GPR40. To be noted: CHO cell line stably expressing human GPR40, Fluo3-AM, read-out: EC50 (Receptor Function Modulating Action On GPR40). The data set is classed as cell-based. As to the method: Determination of EC50 of the Compound of the Present Invention Against Human GPR40
For determination of EC50, CHO cell line that stably expressed human GPR40 was used. Unless otherwise indicated, the CHO cell line was cultured using α-MEM medium (Invitrogen) containing 10% fetal calf serum (Invitrogen).
The cells cultured to nearly confluent were rinsed with PBS (Invitrogen) on the previous day of the assay, peeled off with 0.05% Trypsin-EDTA solution (Invitrogen) and recovered by centrifugation. The number of the obtained cells was counted, and the cells were diluted such that 3×10^5 cells were contained per 1 mL of the medium, dispensed to a black welled 96-well plate (coster) by 100 μL per well and cultured overnight in a CO2 incubator. Various test compounds were added to the CHO cells thus prepared, and the changes in the intracellular calcium concentration was measured using FLIPR (Molecular Device). The below-mentioned pre-treatment was applied to measure changes in the intracellular calcium concentration by FLIPR.
An assay buffer for adding a fluorescence dye Fluo3-AM (DOJIN) to the cells, or for washing the cells immediately before FLIPR assay was prepared. To a solution of 1M HEPES (pH 7.4, DOJIN, 20 mL) added to HBSS (Invitrogen, 1000 mL) (hereinafter HBSS/HEPES solution) was added a solution (10 mL) obtained by dissolving probenecid (Sigma, 710 mg) in 1N NaOH (5 mL), and adding and mixing an HBSS/HEPES solution (5 mL), and the resulting solution was used as an assay buffer. Fluo3-AM (50 μg) was dissolved in dimethylsulfoxide (Wako, 21 μL), and an equivalent amount of 20% pluronic acid (Molecular Probes) was added and mixed. The solution was added to the assay buffer (10.6 mL) supplemented with fetal calf serum (105 μL) to give a fluorescence dye solution. […], the medium of the CHO cells newly inoculated to the black welled 96-well plate was removed, the fluorescence dye solution was immediately dispensed by 100 μL per well and the cells were cultured in a CO2 incubator for 1 hr to allow intake of the fluorescence dye by the cells. The cells after the culture were washed with the above-mentioned assay buffer and set on FLIPR. The test compound was diluted with dimethylsulfoxide in advance, dispensed to polypropylene 96-well plate (sample plate) by 2 μL, and cryopreserved at −20° C. To the thawed sample plate was added an assay buffer containing 0.015% CHAPS (DOJIN) by 198 μL, and simultaneously set on FLIPR together with the cell plate. After the aforementioned pre-treatment, changes in the intracellular calcium concentration upon addition of various test compounds was measured by FLIPR. Based on the results, a dose-response curve of each test compound was formed and EC50 was calculated.
For the compound `Cc1cc(Cl)ccc1-c1cccc(COc2ccc(CCC(=O)O)cc2)c1` [Example 33, 3-[4-[(4′-chloro-2′-methylbiphenyl-3-yl)methoxy]phenyl]propanoic acid], the pEC50 is 8.21.

Consider `COc1ccc(COc2ccc(CCC(=O)O)cc2)cc1-c1ccc(C)cc1C` [Example 49, 3-(4-((6-methoxy-2′,4′-dimethylbiphenyl-3-yl)methoxy)phenyl)propanoic acid], for which the pEC50 was 7.96.

For the compound `CCOCCOc1cc(C)c(-c2cccc(COc3ccc(CC(F)(F)C(=O)O)cc3)c2)c(C)c1` [Example 75, 3-(4-{[4′-(2-ethoxyethoxy)-2′,6′-dimethylbiphenyl-3-yl]methoxy}phenyl)-2,2-difluoropropanoic acid], the pEC50 is 7.80.

As for `Cc1cc(OS(C)(=O)=O)cc(C)c1-c1cccc(COc2ccc(CCC(=O)O)c(F)c2)c1` [Example 102, 3-[4-({2′,6′-dimethyl-4′-[(methylsulfonyl)oxy]biphenyl-3-yl}methoxy)-2-fluorophenyl]propanoic acid], the pEC50 is 7.82.

Turning to `Cc1cc(C)c(-c2cccc(COc3ccc(CCC(=O)O)c(F)c3)c2)c(COc2ccc(F)cc2)c1` [Example 54, 3-{2-fluoro-4-[(2′-(4-fluorophenoxymethyl)-4′,6′-dimethylbiphenyl-3-yl)methoxy]phenyl}propanoic acid], the pEC50 is 7.31.

On to `Cc1cc(OCC2(O)CCS(=O)(=O)CC2)cc(C)c1-c1cccc(COc2ccc(CCC(=O)O)c(F)c2)c1` [Example 100, 3-[2-fluoro-4-({4′-[(4-hydroxy-1,1-dioxidotetrahydro-2H-thiopyran-4-yl)methoxy]-2′,6′-dimethylbiphenyl-3-yl}methoxy)phenyl]propanoic acid], for which the pEC50 is 7.77.

As for `Cc1cc(OCCCN2CCCC2=O)cc(C)c1-c1cccc(COc2ccc(CCC(=O)O)c(F)c2)c1` [Example 90, 3-[4-({2′,6′-dimethyl-4′-[3-(2-oxopyrrolidin-1-yl)propoxy]biphenyl-3-yl}methoxy)-2-fluorophenyl]propanoic acid], the pEC50 was 7.47.

As for `Cc1cc(OCCc2scnc2C)ccc1-c1cccc(COc2ccc(CCC(=O)O)cc2)c1` [Example 14, 3-[4-({2′-methyl-4′-[2-(4-methyl-1,3-thiazol-5-yl)ethoxy]biphenyl-3-yl}methoxy)phenyl]propanoic acid], the pEC50 is 8.00.

Consider `CCS(=O)(=O)CCOc1cc(C)c(-c2cccc(COc3ccc(CCC(=O)O)c(F)c3)c2)c(C)c1` [Example 86, 3-[4-({4′-[2-(ethylsulfonyl)ethoxy]-2′,6′-dimethylbiphenyl-3-yl}methoxy)-2-fluorophenyl]propanoic acid], for which the pEC50 was 7.49.

With `Cc1cc(OCc2ccccc2)cc(C)c1-c1cccc(COc2ccc(CCC(=O)O)cc2)c1` [Example 39, 3-[4-[[4′-(benzyloxy)-2′,6′-dimethylbiphenyl-3-yl]methoxy]phenyl]propanoic acid], the pEC50 was 7.49.

In the case of `Cc1cccc(COc2cc(C)c(-c3cccc(COc4ccc(CCC(=O)O)c(F)c4)c3)c(C)c2)n1.Cl` [Example 97, 3-[4-({2′,6′-dimethyl-4′-[(6-methylpyridin-2-yl)methoxy]biphenyl-3-yl}methoxy)-2-fluorophenyl]propanoic acid hydrochloride], the pEC50 was 7.64.

Turning to `Cc1cc(OC2CCS(=O)(=O)CC2)cc(C)c1-c1cccc(COc2ccc(CCC(=O)O)c(F)c2)c1` [Example 114, 3-[4-({4′-[(1,1-dioxidotetrahydro-2H-thiopyran-4-yl)oxy]-2′,6′-dimethylbiphenyl-3-yl}methoxy)-2-fluorophenyl]propanoic acid], the negative-log EC50 (pEC50) was 7.70.

Tested on in a further data set: not given
Assay: not given
Settings: not given
For the compound `Cc1cc(OS(C)(=O)=O)cc(C)c1-c1cccc(COc2ccc(CCC(=O)O)c(F)c2)c1` [Example 102, 3-[4-({2′,6′-dimethyl-4′-[(methylsulfonyl)oxy]biphenyl-3-yl}methoxy)-2-fluorophenyl]propanoic acid], the melting point was in the range of 124 to 125 °C.

In the case of `Cc1cc(OCC2(C)COC2)cc(C)c1-c1cccc(COc2ccc(CCC(=O)O)c(F)c2)c1` [Example 116, 3-[4-({2′,6′-dimethyl-4′-[(3-methyloxetan-3-yl)methoxy]biphenyl-3-yl}methoxy)-2-fluorophenyl]propanoic acid], the melting point was in the range of 112 to 113 °C.

With `Cc1cccc(COc2cc(C)c(-c3cccc(COc4ccc(CCC(=O)O)c(F)c4)c3)c(C)c2)n1.Cl` [Example 97, 3-[4-({2′,6′-dimethyl-4′-[(6-methylpyridin-2-yl)methoxy]biphenyl-3-yl}methoxy)-2-fluorophenyl]propanoic acid hydrochloride], the melting point was 55 to 56 °C.

Values taken from patent US7456218B2, “3-(4-benzyloxyphenyl) propanoic acid derivatives” (Takeda Pharmaceutical Company Limited, priority 2003, dated 2008).
